Laboratory results as given in patent US20230381291A1, “TUMOR-ASSOCIATED PEPTIDES AND USES THEREOF” (HUMANITAS MIRASOLE S.P.A., priority 2020, published 2023).
Where a SMILES comes first, the peptide text is derived from it. The star is where a group is joined. Cbz = O=C(OCc1ccccc1)*

Experiments:
Type in all cases: cell-based, human
[1] = test system: CTL-Vax; assay: IFN-gamma assay for peptide recognition by CTLs (peptide-loaded Thp1, ELISA); details: synthesized peptides loaded on Thp1 at 20 μM-1.25 μM, ratio 1:1, 72 hours
Description: (§1) Human acute monocytic leukemia Thp1 cell line was loaded either with antigens at different concentration (20 uM-1.25 uM) or with conditioned medium and used to stimulate CTL-Vax (ratio 1:1). Cells supernatant was collected after 72 hours and IFN-gamma production was measured by ELISA (R&D). IFN-gamma released by CTLs co-cultured with unloaded Thp1 (spontaneous IFN-gamma release) was subtracted from IFN measured upon Ag-stimulation. Specificity of the activation was further assessed using an HLA-I pan blocker as control (10 ug/ml, Clone W6/32).

[2] = test system: Salmonella-infected 624-38 melanoma cells; assay: HLA-A*02:01-peptide binding assay on T2 cells (peptide release into supernatant); details: 624-38 cells treated with inhibitor; 4μ8c 10 μM, MG132 20 μM, Epoxomycin 500 nM
Description: (§2) In order to elucidate the Salmonella mechanism of action, the present inventors employed several inhibitors in their in vitro experiments, including: Heptanol (Sigma, 1 mM), hemichannel blocker; proteasome inhibitors: MG132 (Sigma, 20 μM) and Epoxomycin (Sigma, 500 nM); UPR-inhibitor 4μ8c (10 μM).
Single bacterial colonies were grown overnight and restarted the next day to reach an absorbance at 600 nm of 0.6 corresponding to 0.6×10^9 colony-forming units (CFUs)/ml. Murine and human melanoma cells were incubated with bacteria for 90 minutes, at a cell-to-bacteria ratio of 1:50, in the appropriate medium added with L-Glutamine without antibiotics. Cells were washed with medium and incubated in medium supplemented with gentamicin ([…]) for 18 hours to kill extracellular bacteria. At the end of the incubation cells were harvested and then lysed for protein analysis while supernatant was collected and filtered through 0.22 μm filter eliminate potentially still alive bacteria.
To assess peptides enrichment in the supernatant from tumor cell cultures following Salmonella treatment, T2 cells were incubated overnight at 37° C. at 2×10^5 cells/well in serum-free RPMI medium either with 100 μL of supernatant or with Mart-126-35 peptide (1 μM and 10 μM) as a positive control. […]

[3] = test system: Salmonella-infected 624-38 melanoma cells; assay: IFN-gamma release by CTL-Vax on Thp1 loaded with conditioned supernatant; details: supernatant of inhibitor-treated Salmonella-infected 624-38 loaded on Thp1, ratio 1:1, 72 hours
Description: as §2, §1

Compound | IFN-gamma production by CTL-VAX [1] | peptide release prompted by Salmonella infection (HLA-A*02:01 MFI on T2 cells) [2] | CTL-Vax activation upon supernatant stimulation (IFN-gamma release) [3]
TMA747-44: candidate peptide from melanoma secretome that did not induce IFN-gamma production by CTL-VAX (AAGKGPLATGGIKKSGKK) | all except TMA747-44 (SEQ ID NO. 5) were able to induce IFN-gamma production | – | –
Cc1cc(=O)oc2c(C=O)c(O)ccc12 [4μ8c] | – | significantly impaired peptide release | lower activation
CC(C)C[C@@H](C=O)NC(=O)[C@H](CC(C)C)NC(=O)[C@H](CC(C)C)NC(=O)OCc1ccccc1 [MG132] (Cbz-Leu-Leu-Leu-aldehyde) | – | affected | affected
